Measurements taken from ChEMBL document CHEMBL4627340, “Design, synthesis, and biological activity of new endomorphin analogs with multi-site modifications” (Bioorg Med Chem, 2020).
Calls of active or inactive are those of the source. No cut-off for these calls is given here.

Tests used:
Mus musculus [1] = test: Antinociceptive activity in kunming mouse models of formalin-induced hyperalgesia assessed as reduction in pain response of paw licking inflammatory phase at 4 nmol, icv measured during phase 1 at 0 to 5 mins relative to control; assay type: functional; design: scale not given: the % may be the effect or the level left
Mus musculus [2] = test: Antinociceptive activity in kunming mouse models of formalin-induced hyperalgesia assessed as reduction in pain response of paw licking inflammatory phase at 4 nmol, icv measured during phase 2 at 15 to 30 mins relative to control; assay type: functional; design: scale not given: the % may be the effect or the level left
Mus musculus [3] = test: Antinociceptive activity in kunming mouse models of acetic-acid-induced writhing assessed as inhibition of writhing numbers at 3 mg/kg, iv pretreated for 5 mins followed by acetic-acid treatment and measured for 20 mins; assay type: functional, organism-based
Mus musculus [4] = test: Antinociceptive activity in icv administered kunming mouse models of formalin-induced hyperalgesia assessed reduction in pain response of paw licking during inflammatory phase 2 at 15 to 30 mins; assay type: functional, organism-based
Mu-type opioid receptor [5] = biological target: T1, Mu-type opioid receptor (Homo sapiens, UniProt P35372); test: Agonist activity at mu opioid receptor (unknown origin) expressed in human HEK293 cells assessed as […] in cAMP accumulation using [3H]-cAMP as substrate measured after 30mins by liquid scintillation counting method; assay type: functional, cell-based
T1 sequence (P35372 whole entry): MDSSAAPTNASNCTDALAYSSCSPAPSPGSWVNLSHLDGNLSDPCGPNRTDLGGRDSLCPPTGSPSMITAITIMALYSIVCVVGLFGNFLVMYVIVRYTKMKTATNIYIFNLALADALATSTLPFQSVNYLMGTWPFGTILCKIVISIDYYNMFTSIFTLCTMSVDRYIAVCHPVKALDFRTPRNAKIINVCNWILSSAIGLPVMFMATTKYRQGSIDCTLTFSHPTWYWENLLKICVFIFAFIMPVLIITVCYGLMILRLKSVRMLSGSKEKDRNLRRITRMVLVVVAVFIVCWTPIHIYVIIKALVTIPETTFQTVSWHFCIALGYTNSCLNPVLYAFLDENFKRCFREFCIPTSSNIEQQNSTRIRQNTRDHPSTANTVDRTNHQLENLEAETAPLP

Mus musculus [6] = test: Antinociceptive activity in kunming mouse models of formalin-induced hyperalgesia assessed as reduction in time spent on paw biting inflammatory phase at 0.04 nmol, icv measured during phase 1 at 0 to 5 mins relative to control; assay type: functional; design: scale not given: the % may be the effect or the level left
[7] = Neurotoxicity in kunming mouse models assessed as effect in locomotor activity at 10 mg/kg,iv measured up to 60 mins by rotarod test; assay type: toxicity, organism-based; settings: in vivo, 1 h
[8] = Half life in Kunming mouse brain homogenate at 10^-2 mol/L by RP-HPLC analysis; assay type: ADME, tissue-based
Mus musculus [9] = test: Antinociceptive activity in kunming mouse models of formalin-induced hyperalgesia assessed as reduction in time spent on paw biting inflammatory phase at 4 nmol, icv measured during phase 2 at 15 to 30 mins relative to control; assay type: functional; design: scale not given: the % may be the effect or the level left
[10] = Toxicity in kunming mouse assessed as reduction in number of fecal pellet at 1 to 10 mg/kg, iv after 1 hr; assay type: organism-based; settings: in vivo
Mus musculus [11] = test: Antinociceptive activity in icv administered kunming mouse models of formalin-induced hyperalgesia assessed reduction in time spent on paw shaking during inflammatory phase 2 at 15 to 30 mins; assay type: functional; design: scale not given: the % may be the effect or the level left
Mus musculus [12] = test: Antinociceptive activity in kunming mouse models of formalin-induced hyperalgesia assessed as reduction in time spent on paw shaking inflammatory phase at 4 nmol, icv measured during phase 1 at 0 to 5 mins relative to control; assay type: functional; design: scale not given: the % may be the effect or the level left
Mus musculus [13] = test: Antinociceptive activity in kunming mouse models assessed as effective dose after icv administration measured from 5 to 60 mins by warm water tail-flick assay; assay type: functional
Mus musculus [14] = test: Antinociceptive activity in kunming mouse models of formalin-induced hyperalgesia assessed as reduction in time spent on paw biting inflammatory phase at 4 nmol, icv measured during phase 1 at 0 to 5 mins relative to control; assay type: functional; design: scale not given: the % may be the effect or the level left
Mus musculus [15] = test: Antinociceptive activity in iv dosed kunming mouse models of formalin-induced hyperalgesia assessed as reduction in pain response of paw licking measured up to 60 mins; assay type: functional, organism-based
Mu-type opioid receptor [16] = biological target: Mu-type opioid receptor (Rattus norvegicus, UniProt P33535); test: Displacement of [3H]-DAMGO from Wistar rat mu opioid receptor incubated for 1 hr by liquid scintillation counting method
Mu-type opioid receptor (Rattus norvegicus, UniProt P33535), sequence (P33535 whole entry): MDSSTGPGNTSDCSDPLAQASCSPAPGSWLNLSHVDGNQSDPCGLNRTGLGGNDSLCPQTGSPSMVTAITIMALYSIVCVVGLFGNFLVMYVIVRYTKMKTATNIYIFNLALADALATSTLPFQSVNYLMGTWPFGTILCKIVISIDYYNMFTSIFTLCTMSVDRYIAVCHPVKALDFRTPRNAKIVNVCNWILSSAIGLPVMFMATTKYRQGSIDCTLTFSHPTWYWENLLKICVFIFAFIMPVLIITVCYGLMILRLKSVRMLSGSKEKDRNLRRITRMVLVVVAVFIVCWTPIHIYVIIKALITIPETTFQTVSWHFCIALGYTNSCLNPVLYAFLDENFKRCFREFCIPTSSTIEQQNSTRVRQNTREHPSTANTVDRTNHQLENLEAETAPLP

Mus musculus [17] = test: Antinociceptive activity in kunming mouse models of formalin-induced hyperalgesia assessed as reduction in time spent on paw shaking inflammatory phase at 0.04 nmol, icv measured during phase 1 at 0 to 5 mins relative to control; assay type: functional; design: scale not given: the % may be the effect or the level left
Mus musculus [18] = test: Antinociceptive activity in icv administered kunming mouse models of formalin-induced hyperalgesia assessed reduction in time spent on paw biting during inflammatory phase 2 at 15 to 30 mins; assay type: functional; design: scale not given: the % may be the effect or the level left
Mu-type opioid receptor [19] = biological target: T1, Mu-type opioid receptor; test: Agonist activity at mu opioid receptor (unknown origin) expressed in human HEK293 cells assessed as […] in cAMP accumulation using [3H]-cAMP as substrate measured after 30mins by liquid scintillation counting method relative to control; assay type: functional, cell-based
[20] = Toxicity in kunming mouse assessed as reduction in fecal dry weight at 1 to 10 mg/kg, iv after 1 hr; assay type: organism-based; settings: in vivo
[21] = biological target: Delta-type opioid receptor (Rattus norvegicus, UniProt P33533); test: Displacement of [3H]-DPDPE from Wistar rat delta opioid receptor incubated for 3 hrs by liquid scintillation counting method
Delta-type opioid receptor, sequence (P33533 whole entry): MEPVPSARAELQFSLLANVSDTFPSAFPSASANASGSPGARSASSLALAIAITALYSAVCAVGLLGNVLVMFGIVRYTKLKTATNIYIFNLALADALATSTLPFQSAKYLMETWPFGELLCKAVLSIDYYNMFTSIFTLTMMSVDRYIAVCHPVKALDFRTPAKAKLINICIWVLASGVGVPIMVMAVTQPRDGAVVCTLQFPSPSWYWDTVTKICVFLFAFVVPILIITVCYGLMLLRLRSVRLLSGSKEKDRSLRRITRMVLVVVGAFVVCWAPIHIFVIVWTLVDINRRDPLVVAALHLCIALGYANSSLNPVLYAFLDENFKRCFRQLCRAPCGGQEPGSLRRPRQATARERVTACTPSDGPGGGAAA

Mus musculus [22] = test: Antinociceptive activity in kunming mouse models assessed as maximum possible effect at 3 mg/kg, iv measured after 5 to 60 mins by warm water tail-flick assay; assay type: functional
Mus musculus [23] = test: Antinociceptive activity in kunming mouse models of acetic-acid-induced writhing assessed as inhibition of writhing numbers at 0.04 nmol, icv pretreated for 5 mins followed by acetic-acid treatment and measured for 20 mins relative to control; assay type: functional; design: scale not given: the % may be the effect or the level left
Mus musculus [24] = test: Antinociceptive activity in kunming mouse models assessed as maximum possible effect at 4 nmol, icv measured from 5 to 60 mins by warm water tail-flick assay relative to control; assay type: functional
Mus musculus [25] = test: Antinociceptive activity in kunming mouse models assessed as maximum possible effect at 0.4 nmol, icv measured from 5 to 60 mins by warm water tail-flick assay relative to control; assay type: functional
Mus musculus [26] = test: Antinociceptive activity in kunming mouse models of formalin-induced hyperalgesia assessed as reduction in pain response of paw licking inflammatory phase at 0.04 nmol, icv measured during phase 1 at 0 to 5 mins relative to control; assay type: functional; design: scale not given: the % may be the effect or the level left
[27] = Half life in Kunming mouse serum at 10^-2 mol/L by RP-HPLC analysis; assay type: ADME, cell-free
Mus musculus [28] = test: Antinociceptive activity in kunming mouse models of formalin-induced hyperalgesia assessed as reduction in time spent on paw shaking inflammatory phase at 4 nmol, icv measured during phase 2 at 15 to 30 mins relative to control; assay type: functional; design: scale not given: the % may be the effect or the level left
Mus musculus [29] = test: Antinociceptive activity in kunming mouse models assessed as effective dose after iv administration by warm water tail-flick assay; assay type: functional
Mus musculus [30] = test: Antinociceptive activity in kunming mouse models assessed as maximum possible effect at 10 mg/kg, iv measured after 5 to 60 mins co-treated with naloxone by warm water tail-flick assay; assay type: functional, organism-based

| Compound | Activity (Mus musculus [1]) [%] | Activity (Mus musculus [2]) [%] | Activity (Mus musculus [3]) | Activity (Mus musculus [4]) | EC50 (Mu-type opioid receptor [5]) [nM] | Activity (Mus musculus [6]) [%] | Activity [7] | half-life [8] [h] | Activity (Mus musculus [9]) [%] | Activity [10] | Activity (Mus musculus [11]) [%] | Activity (Mus musculus [12]) [%] | ED50 (Mus musculus [13]) [nmol] | Activity (Mus musculus [14]) [%] | Activity (Mus musculus [15]) | Ki (Mu-type opioid receptor [16]) [nM] | Activity (Mus musculus [17]) [%] | Activity (Mus musculus [18]) [%] | Emax (Mu-type opioid receptor [19]) [%] | Activity [20] | further results |
| --- | --- | --- | --- | --- | --- | --- | --- | --- | --- | --- | --- | --- | --- | --- | --- | --- | --- | --- | --- | --- | --- |
| C=C(C(N)=O)[C@@H](NC(=O)[C@H](Cc1ccccc1)NC(=O)[C@@H](CCCNC(N)=O)NC(=O)[C@@H](N)Cc1ccc(O)cc1)c1ccco1 | 100 | 100 | Active | Dose-dependent effect | 128 | 100 | Non-Toxic | > 5 | 100 | Toxic | 100 | 100 | 0.043 | 100 | Dose-dependent effect | 8.72 | 100 | 100 | 76.7 | Toxic | Ki [21]: > 10000 nM; MPE (Mus musculus [22]): 34.8%; Activity (Mus musculus [23]): 100%; Activity (Mus musculus [24]): 100%; MPE (Mus musculus [25]): 84%; Activity (Mus musculus [26]): 100%; half-life [27]: > 5 h; Activity (Mus musculus [28]): 100%; ED50 (Mus musculus [29]): 3.84 nmol; Activity (Mus musculus [30]): inactive |
| C=C(C(N)=O)[C@@H](NC(=O)[C@H](Cc1c[nH]c2ccccc12)NC(=O)[C@@H](CCCNC(N)=O)NC(=O)[C@@H](N)Cc1ccc(O)cc1)c1ccco1 | 100 | 100 | Active | Dose-dependent effect | 164 | 100 | Non-Toxic | > 5 | 100 | Toxic | 100 | 100 | 0.037 | 100 | Dose-dependent effect | 5.82 | 100 | 100 | 78.9 | Toxic | Ki [21]: > 10000 nM; MPE (Mus musculus [22]): 51.2%; Activity (Mus musculus [23]): 100%; Activity (Mus musculus [24]): 100%; MPE (Mus musculus [25]): 100%; Activity (Mus musculus [26]): 100%; half-life [27]: > 5 h; Activity (Mus musculus [28]): 100%; ED50 (Mus musculus [29]): 2.59 nmol; Activity (Mus musculus [30]): inactive |
